Measured values published in ChEMBL document CHEMBL5723584 (2023).

Tests used:
[1] = molecular target: Serine/threonine-protein kinase D3 (Homo sapiens) (UniProt O94806); experiment: activity of PKD3(h) at 1.0 µM in the Eurofins Kinase panel; details: Compound concentration 1.0 uM
[2] = molecular target: Serine/threonine-protein kinase ICK (Homo sapiens) (UniProt Q9UPZ9); experiment: activity of ICK(h) at 1.0 µM in the Eurofins Kinase panel; details: Compound concentration 1.0 uM
[3] = molecular target: 5'-AMP-activated protein kinase catalytic subunit alpha-2 (Homo sapiens) (UniProt P54646); experiment: activity of AMPKalpha2(h) at 1.0 µM in the Eurofins Kinase panel; details: Compound concentration 1.0 uM
[4] = molecular target: Serine/threonine-protein kinase WNK1 (Homo sapiens) (UniProt Q9H4A3); experiment: activity of WNK1(h) at 1.0 µM in the Eurofins Kinase panel; details: Compound concentration 1.0 uM
[5] = molecular target: cAMP-dependent protein kinase catalytic subunit PRKX (Homo sapiens) (UniProt P51817); experiment: activity of PrKX(h) at 1.0 µM in the Eurofins Kinase panel; details: Compound concentration 1.0 uM
[6] = molecular target: Serine/threonine-protein kinase WNK4 (Homo sapiens) (UniProt Q96J92); experiment: activity of WNK4(h) at 1.0 µM in the Eurofins Kinase panel; details: Compound concentration 1.0 uM
[7] = molecular target: Mitogen-activated protein kinase 12 (Homo sapiens) (UniProt P53778); experiment: activity of SAPK3(h) at 1.0 µM in the Eurofins Kinase panel; details: Compound concentration 1.0 uM
[8] = molecular target: Serine/threonine-protein kinase VRK2 (Homo sapiens) (UniProt Q86Y07); experiment: activity of VRK2(h) at 1.0 µM in the Eurofins Kinase panel; details: Compound concentration 1.0 uM
[9] = molecular target: Rho-associated protein kinase 2 (Homo sapiens) (UniProt O75116); experiment: activity of ROCK-II(h) at 1.0 µM in the Eurofins Kinase panel; details: Compound concentration 1.0 uM
[10] = molecular target: Receptor-interacting serine/threonine-protein kinase 1 (Homo sapiens) (UniProt Q13546); experiment: activity of RIPK1(h) at 1.0 µM in the Eurofins Kinase panel; details: Compound concentration 1.0 uM
[11] = molecular target: Serine/threonine-protein kinase 26 (Homo sapiens) (UniProt Q9P289); experiment: activity of MST4(h) at 1.0 µM in the Eurofins Kinase panel; details: Compound concentration 1.0 uM
Aurora kinase A = Aurora kinase A (Homo sapiens, UniProt O14965); experiment: Promega NanoBRET (AURKA)
[12] = molecular target: Glycogen synthase kinase-3 beta (Homo sapiens) (UniProt P49841); experiment: activity of GSK3beta(h) at 1.0 µM in the Eurofins Kinase panel; details: Compound concentration 1.0 uM
[13] = molecular target: Serine/threonine-protein kinase 33 (Homo sapiens) (UniProt Q9BYT3); experiment: activity of STK33(h) at 1.0 µM in the Eurofins Kinase panel; details: Compound concentration 1.0 uM
[14] = molecular target: Serine/threonine-protein kinase pim-1 (Homo sapiens) (UniProt P11309); experiment: activity of Pim-1(h) at 1.0 µM in the Eurofins Kinase panel; details: Compound concentration 1.0 uM
[15] = molecular target: RAC-gamma serine/threonine-protein kinase (Homo sapiens) (UniProt Q9Y243); experiment: activity of PKBgamma(h) at 1.0 µM in the Eurofins Kinase panel; details: Compound concentration 1.0 uM
[16] = molecular target: Tau-tubulin kinase 1 (Homo sapiens) (UniProt Q5TCY1); experiment: activity of TTBK1(h) at 1.0 µM in the Eurofins Kinase panel; details: Compound concentration 1.0 uM
[17] = molecular target: Cyclin-dependent kinase-like 3 (Homo sapiens) (UniProt Q8IVW4); experiment: activity of CDKL3(h) at 1.0 µM in the Eurofins Kinase panel; details: Compound concentration 1.0 uM
Homo sapiens = species on record: Homo sapiens; experiment: activity of MAPK2(h) at 1.0 µM in the Eurofins Kinase panel; details: Compound concentration 1.0 uM
[18] = molecular target: Casein kinase I isoform gamma-3 (Homo sapiens) (UniProt Q9Y6M4); experiment: activity of CK1gamma3(h) at 1.0 µM in the Eurofins Kinase panel; details: Compound concentration 1.0 uM
[19] = molecular target: Proto-oncogene tyrosine-protein kinase Src (Homo sapiens) (UniProt P12931); experiment: activity of cSRC(h) at 1.0 µM in the Eurofins Kinase panel; details: Compound concentration 1.0 uM
[20] = molecular target: Serine/threonine-protein kinase PRP4 homolog (Homo sapiens) (UniProt Q13523); experiment: activity of PRP4(h) at 1.0 µM in the Eurofins Kinase panel; details: Compound concentration 1.0 uM
[21] = molecular target: Serine/threonine-protein kinase TAO3 (Homo sapiens) (UniProt Q9H2K8); experiment: activity of TAO3(h) at 1.0 µM in the Eurofins Kinase panel; details: Compound concentration 1.0 uM
[22] = molecular target: Muscle, skeletal receptor tyrosine-protein kinase (Homo sapiens) (UniProt O15146); experiment: activity of MuSK(h) at 1.0 µM in the Eurofins Kinase panel; details: Compound concentration 1.0 uM
[23] = molecular target: LIM domain kinase 1 (Homo sapiens) (UniProt P53667); experiment: activity of LIMK1(h) at 1.0 µM in the Eurofins Kinase panel; details: Compound concentration 1.0 uM
[24] = molecular target: Myotonin-protein kinase (Homo sapiens) (UniProt Q09013); experiment: activity of DMPK(h) at 1.0 µM in the Eurofins Kinase panel; details: Compound concentration 1.0 uM
[25] = molecular target: STE20/SPS1-related proline-alanine-rich protein kinase (Homo sapiens) (UniProt Q9UEW8); experiment: activity of STK39(h) at 1.0 µM in the Eurofins Kinase panel; details: Compound concentration 1.0 uM
[26] = molecular target: Leukocyte tyrosine kinase receptor (Homo sapiens) (UniProt P29376); experiment: activity of LTK(h) at 1.0 µM in the Eurofins Kinase panel; details: Compound concentration 1.0 uM
[27] = molecular target: Serine/threonine-protein kinase mTOR (Homo sapiens) (UniProt P42345); experiment: activity of mTOR(h) at 1.0 µM in the Eurofins Kinase panel; details: Compound concentration 1.0 uM
[28] = molecular target: Testis-specific serine/threonine-protein kinase 3 (Homo sapiens) (UniProt Q96PN8); experiment: activity of TSSK3(h) at 1.0 µM in the Eurofins Kinase panel; details: Compound concentration 1.0 uM
[29] = molecular target: Mitogen-activated protein kinase 1 (Homo sapiens) (UniProt P28482); experiment: activity of MAPK1(h) at 1.0 µM in the Eurofins Kinase panel; details: Compound concentration 1.0 uM
ATR/ATRIP (Homo sapiens) = ATR/ATRIP (Homo sapiens) (UniProt Q13535+Q8WXE1); experiment: activity of ATR/ATRIP(h) at 1.0 µM in the Eurofins Kinase panel; type: protein-complex assay; details: Compound concentration 1.0 uM
[30] = molecular target: Serine/threonine-protein kinase MARK1 (Homo sapiens) (UniProt Q9P0L2); experiment: activity of MARK1(h) at 1.0 µM in the Eurofins Kinase panel; details: Compound concentration 1.0 uM
[31] = molecular target: PI3K p110 beta/p85 alpha (Homo sapiens) (UniProt P27986+P42338); experiment: activity of PI3 Kinase (p110beta/p85alpha)(h) at 1.0 µM in the Eurofins Kinase panel; type: protein-complex assay; details: Compound concentration 1.0 uM
[32] = molecular target: Casein kinase I isoform gamma-1 (Homo sapiens) (UniProt Q9HCP0); experiment: activity of CK1gamma1(h) at 1.0 µM in the Eurofins Kinase panel; details: Compound concentration 1.0 uM
[33] = molecular target: Fibroblast growth factor receptor 4 (Homo sapiens) (UniProt P22455); experiment: activity of FGFR4(h) at 1.0 µM in the Eurofins Kinase panel; details: Compound concentration 1.0 uM
[34] = molecular target: MAP/microtubule affinity-regulating kinase 3 (Homo sapiens) (UniProt P27448); experiment: activity of MARK3(h) at 1.0 µM in the Eurofins Kinase panel; details: Compound concentration 1.0 uM
[35] = molecular target: cAMP-dependent protein kinase catalytic subunit beta (Homo sapiens) (UniProt P22694); experiment: activity of PKACbeta(h) at 1.0 µM in the Eurofins Kinase panel; details: Compound concentration 1.0 uM
[36] = molecular target: Mitogen-activated protein kinase 9 (Homo sapiens) (UniProt P45984); experiment: activity of JNK2alpha2(h) at 1.0 µM in the Eurofins Kinase panel; details: Compound concentration 1.0 uM

Cyclin-dependent kinase-like 3 (Homo sapiens), sequence (Q8IVW4 whole entry, looked up): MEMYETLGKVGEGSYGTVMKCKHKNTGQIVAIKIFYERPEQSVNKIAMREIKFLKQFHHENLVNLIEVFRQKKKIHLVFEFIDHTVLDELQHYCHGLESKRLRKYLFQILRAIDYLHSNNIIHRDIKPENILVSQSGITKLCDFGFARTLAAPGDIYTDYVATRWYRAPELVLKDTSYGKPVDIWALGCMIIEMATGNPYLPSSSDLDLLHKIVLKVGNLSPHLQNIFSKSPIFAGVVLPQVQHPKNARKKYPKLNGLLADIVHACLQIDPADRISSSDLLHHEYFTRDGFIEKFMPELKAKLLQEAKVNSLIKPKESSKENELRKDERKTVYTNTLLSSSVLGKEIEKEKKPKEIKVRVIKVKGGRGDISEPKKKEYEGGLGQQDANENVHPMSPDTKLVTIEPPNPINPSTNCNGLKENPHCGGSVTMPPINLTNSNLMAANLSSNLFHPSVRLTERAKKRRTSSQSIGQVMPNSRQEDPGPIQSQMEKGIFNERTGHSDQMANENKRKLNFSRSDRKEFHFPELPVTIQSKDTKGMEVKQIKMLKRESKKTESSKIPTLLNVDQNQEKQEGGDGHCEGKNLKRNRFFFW
LIM domain kinase 1 (Homo sapiens), sequence (P53667 whole entry, looked up, the tested form may be a part): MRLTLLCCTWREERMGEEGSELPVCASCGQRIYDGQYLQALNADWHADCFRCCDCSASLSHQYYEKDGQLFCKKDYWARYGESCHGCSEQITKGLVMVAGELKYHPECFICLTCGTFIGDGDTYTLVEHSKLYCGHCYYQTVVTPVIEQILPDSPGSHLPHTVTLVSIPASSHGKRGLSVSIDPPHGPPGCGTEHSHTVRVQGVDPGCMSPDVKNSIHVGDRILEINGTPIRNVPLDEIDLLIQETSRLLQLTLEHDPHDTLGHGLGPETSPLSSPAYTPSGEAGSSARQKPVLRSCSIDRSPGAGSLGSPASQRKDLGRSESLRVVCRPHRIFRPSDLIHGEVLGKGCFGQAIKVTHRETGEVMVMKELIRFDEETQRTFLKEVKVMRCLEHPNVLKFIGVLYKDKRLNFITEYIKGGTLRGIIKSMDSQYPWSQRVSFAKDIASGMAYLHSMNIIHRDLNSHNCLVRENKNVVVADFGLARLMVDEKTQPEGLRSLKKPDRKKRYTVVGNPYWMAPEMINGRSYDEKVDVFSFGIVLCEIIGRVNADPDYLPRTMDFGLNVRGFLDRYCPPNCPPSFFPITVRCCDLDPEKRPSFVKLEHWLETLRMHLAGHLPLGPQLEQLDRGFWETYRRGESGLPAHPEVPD
Tau-tubulin kinase 1 (Homo sapiens), sequence (Q5TCY1 whole entry): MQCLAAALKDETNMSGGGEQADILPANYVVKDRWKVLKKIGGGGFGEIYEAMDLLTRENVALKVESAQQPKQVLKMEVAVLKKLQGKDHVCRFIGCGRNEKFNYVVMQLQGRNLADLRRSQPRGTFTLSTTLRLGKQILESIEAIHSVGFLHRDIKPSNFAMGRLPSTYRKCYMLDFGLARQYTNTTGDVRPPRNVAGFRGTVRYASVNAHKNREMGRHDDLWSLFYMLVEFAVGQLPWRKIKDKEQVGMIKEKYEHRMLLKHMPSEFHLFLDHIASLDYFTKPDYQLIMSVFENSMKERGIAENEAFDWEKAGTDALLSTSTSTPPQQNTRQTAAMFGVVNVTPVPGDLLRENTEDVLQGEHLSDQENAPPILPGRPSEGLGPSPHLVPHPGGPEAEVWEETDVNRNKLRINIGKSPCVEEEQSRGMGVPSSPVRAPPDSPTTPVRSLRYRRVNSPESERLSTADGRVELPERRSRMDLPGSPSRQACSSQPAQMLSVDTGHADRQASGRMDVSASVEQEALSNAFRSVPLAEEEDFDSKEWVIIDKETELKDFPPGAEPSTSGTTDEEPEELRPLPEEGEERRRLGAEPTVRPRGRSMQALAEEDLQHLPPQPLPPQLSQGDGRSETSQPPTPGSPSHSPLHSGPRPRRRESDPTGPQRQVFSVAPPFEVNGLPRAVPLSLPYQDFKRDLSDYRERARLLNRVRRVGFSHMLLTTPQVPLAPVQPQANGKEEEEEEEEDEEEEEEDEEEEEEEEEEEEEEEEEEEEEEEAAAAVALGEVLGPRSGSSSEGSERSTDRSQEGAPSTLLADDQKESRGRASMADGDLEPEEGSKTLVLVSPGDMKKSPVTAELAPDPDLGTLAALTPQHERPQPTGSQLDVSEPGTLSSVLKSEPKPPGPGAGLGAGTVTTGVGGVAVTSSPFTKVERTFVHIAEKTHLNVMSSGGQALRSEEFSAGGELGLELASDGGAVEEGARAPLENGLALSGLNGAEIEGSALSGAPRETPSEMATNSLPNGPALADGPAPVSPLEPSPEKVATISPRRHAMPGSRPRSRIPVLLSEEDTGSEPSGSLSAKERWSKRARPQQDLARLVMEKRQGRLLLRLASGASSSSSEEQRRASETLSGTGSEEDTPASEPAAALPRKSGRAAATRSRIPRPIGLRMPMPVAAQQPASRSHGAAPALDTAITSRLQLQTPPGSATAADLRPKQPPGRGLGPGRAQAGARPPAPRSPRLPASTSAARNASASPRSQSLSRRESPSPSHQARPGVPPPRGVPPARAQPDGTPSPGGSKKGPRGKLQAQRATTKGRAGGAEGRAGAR
Mitogen-activated protein kinase 12 (Homo sapiens), sequence (P53778 whole entry): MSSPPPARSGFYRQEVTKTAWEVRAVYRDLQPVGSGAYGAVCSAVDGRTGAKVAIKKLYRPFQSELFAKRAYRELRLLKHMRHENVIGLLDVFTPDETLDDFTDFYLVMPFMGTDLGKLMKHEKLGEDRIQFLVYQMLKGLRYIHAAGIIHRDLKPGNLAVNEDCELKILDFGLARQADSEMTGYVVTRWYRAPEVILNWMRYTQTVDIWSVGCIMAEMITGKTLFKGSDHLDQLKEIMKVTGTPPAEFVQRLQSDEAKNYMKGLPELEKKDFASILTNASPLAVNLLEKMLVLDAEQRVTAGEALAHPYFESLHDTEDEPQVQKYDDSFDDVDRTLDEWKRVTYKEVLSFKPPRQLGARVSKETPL
Serine/threonine-protein kinase 26 (Homo sapiens), sequence (Q9P289 2-416 limits assumed): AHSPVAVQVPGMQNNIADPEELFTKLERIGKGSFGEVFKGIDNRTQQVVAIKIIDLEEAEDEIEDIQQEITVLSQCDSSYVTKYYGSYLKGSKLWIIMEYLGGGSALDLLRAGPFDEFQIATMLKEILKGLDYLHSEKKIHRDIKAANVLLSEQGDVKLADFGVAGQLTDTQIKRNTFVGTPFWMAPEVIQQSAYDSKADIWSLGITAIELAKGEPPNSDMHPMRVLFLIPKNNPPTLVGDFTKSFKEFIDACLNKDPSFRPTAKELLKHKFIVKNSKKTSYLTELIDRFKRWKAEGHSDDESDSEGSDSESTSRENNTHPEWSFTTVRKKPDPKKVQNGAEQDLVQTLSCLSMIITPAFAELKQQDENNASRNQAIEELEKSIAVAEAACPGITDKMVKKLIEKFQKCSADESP
Testis-specific serine/threonine-protein kinase 3 (Homo sapiens), sequence (Q96PN8 whole entry): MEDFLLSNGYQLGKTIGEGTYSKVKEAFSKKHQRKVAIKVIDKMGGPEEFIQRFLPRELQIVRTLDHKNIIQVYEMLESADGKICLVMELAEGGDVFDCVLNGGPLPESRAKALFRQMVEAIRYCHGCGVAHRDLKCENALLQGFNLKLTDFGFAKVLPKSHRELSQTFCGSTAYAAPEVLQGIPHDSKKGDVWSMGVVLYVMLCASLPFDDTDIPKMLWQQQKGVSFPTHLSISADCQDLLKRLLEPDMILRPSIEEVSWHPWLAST
Rho-associated protein kinase 2 (Homo sapiens), sequence (O75116 whole entry, looked up): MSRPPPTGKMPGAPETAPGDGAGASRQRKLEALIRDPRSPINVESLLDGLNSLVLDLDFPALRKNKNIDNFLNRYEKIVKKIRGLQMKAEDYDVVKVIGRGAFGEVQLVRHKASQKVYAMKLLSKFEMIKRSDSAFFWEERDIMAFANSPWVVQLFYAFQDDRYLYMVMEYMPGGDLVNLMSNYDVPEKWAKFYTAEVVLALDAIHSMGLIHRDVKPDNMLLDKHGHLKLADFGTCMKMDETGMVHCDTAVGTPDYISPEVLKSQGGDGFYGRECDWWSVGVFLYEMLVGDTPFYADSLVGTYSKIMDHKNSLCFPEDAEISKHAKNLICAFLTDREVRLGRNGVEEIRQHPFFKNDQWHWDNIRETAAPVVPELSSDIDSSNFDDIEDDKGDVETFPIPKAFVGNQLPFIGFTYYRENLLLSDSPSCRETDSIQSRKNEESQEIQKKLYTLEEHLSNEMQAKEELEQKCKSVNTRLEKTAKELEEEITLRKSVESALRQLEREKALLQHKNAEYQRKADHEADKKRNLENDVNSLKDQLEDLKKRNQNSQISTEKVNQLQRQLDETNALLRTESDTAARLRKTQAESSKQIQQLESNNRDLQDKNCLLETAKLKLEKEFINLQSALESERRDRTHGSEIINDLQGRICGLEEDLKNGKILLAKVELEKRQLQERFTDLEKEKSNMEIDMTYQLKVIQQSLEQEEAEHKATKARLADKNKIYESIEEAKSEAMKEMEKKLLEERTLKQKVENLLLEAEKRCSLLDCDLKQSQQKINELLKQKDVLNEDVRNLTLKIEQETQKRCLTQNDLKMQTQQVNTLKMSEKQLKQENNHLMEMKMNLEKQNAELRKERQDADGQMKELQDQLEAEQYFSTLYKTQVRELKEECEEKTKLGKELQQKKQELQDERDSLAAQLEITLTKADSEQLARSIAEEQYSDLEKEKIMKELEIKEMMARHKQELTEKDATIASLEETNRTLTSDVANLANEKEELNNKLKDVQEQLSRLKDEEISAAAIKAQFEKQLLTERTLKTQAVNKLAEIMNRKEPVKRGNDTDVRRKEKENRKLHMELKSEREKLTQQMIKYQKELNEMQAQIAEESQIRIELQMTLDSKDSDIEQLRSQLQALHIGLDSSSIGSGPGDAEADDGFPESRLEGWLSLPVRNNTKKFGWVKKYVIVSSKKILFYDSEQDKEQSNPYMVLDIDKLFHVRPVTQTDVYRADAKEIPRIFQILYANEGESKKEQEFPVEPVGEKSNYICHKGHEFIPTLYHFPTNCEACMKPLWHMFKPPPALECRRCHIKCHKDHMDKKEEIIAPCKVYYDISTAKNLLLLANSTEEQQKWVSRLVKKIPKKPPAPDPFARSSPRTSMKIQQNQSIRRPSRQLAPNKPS

Cc1cc2c(-c3ccc(NC(=O)[C@H](N)CC(C)(C)C)cc3C)ccnc2[nH]1
activity [1]: 97%
activity [2]: 99%
activity [3]: 117%
activity [4]: 109%
activity [5]: 101%
activity [6]: 97%
activity [7]: 113%
activity [8]: 100%
activity [9]: 96%
activity [10]: 84%
activity [11]: 106%
IC50 (Aurora kinase A): > 10 µM (not active)
activity [12]: 93%
activity [13]: 98%
activity [14]: 95%
activity [15]: 101%
activity [16]: 96%
activity [17]: 79%
activity (Homo sapiens): 109%
activity [18]: 84%
activity [19]: 93%
activity [20]: 100%
activity [21]: 100%
activity [22]: 96%
activity [23]: 70%
activity [24]: 93%
activity [25]: 102%
activity [26]: 97%
activity [27]: 95%
activity [28]: 96%
activity [29]: 95%
activity (ATR/ATRIP (Homo sapiens)): 110%
activity [30]: 106%
activity [31]: 102%
activity [32]: 101%
activity [33]: 114%
activity [34]: 90%
activity [35]: 121%
activity [36]: 99%
